Data from patent publication US12729192B2, “CDK9 inhibitor and use thereof” (PHARMABLOCK SCIENCES (NANJING), INC., priority 2020, dated 2026).

What was measured:
Assay type in all cases: biochemical
Details in all cases: 10 μM ATP, 2 h at room temperature
CDK7 = target: T1, CDK7 (Homo sapiens, UniProt P50613); experiment: CDK7 kinase activity inhibition (ADP-Glo)
T1 construct: purchased Carna Biosciences, Inc
Procedure: (§1) CDK9 kinase was manufactured by the company or commercially available. CDK1, CDK2 and CDK7 were purchased from Carna Biosciences, Inc. ADP-Glo™ kit was purchased from Promega Corporation. Dithiothreitol (DTT), Tween-20, dimethylsulfoxide (DMSO), bovine serum albumin (BSA) and Tris base were obtained from Sigma at the available highest level of purity.
(§2) General procedures for CDK inhibition determination: The determination was performed in a buffer consisting of 50 μM DTT, 0.1% BSA, 40 mM Tris-HCl pH=7.5 and 20 mM MgCl2. The compound dissolved in DMSO and CDK enzymes were diluted with the buffer. 1 μL of the compound solution in 5% DMSO and 2 μL of the CDK enzyme solution were added to a white low-volume 384-well microtiter plate and incubated for 20 min at room temperature. Ultra pure ATP and the substrate polypeptide (purchased from GenScript Biotech Corporation) were diluted together into the buffer and added to a mixed solution of the compound and the enzyme, 2 μL per well. They were incubated for 2 h at room temperature.
(§3) After the reaction was completed, 5 μL of ADP-Glo™ reagent was added to each well and incubated for 40 min at room temperature, and then 10 μL of test reagent was added to each well and incubated for 30 mi at room temperature. Chemical luminescence values were measured by using a Tecan (Männedorf, Switzerland) multifunctional plate reader Spark for plate reading. The IC50 value of the inhibitor was obtained by fitting the chemical luminescence intensity ratio in the S-shaped dosage reaction curve using Prism 7 (La Jolla, 15 CA) relative to the concentration of the inhibitor.

CDK2 = target: T2, CDK2 (Homo sapiens, UniProt P24941); experiment: CDK2 kinase activity inhibition (ADP-Glo)
T2 construct: purchased Carna Biosciences, Inc
Procedure: as §1, §2, §3

CDK9 = CDK9 (Homo sapiens, UniProt P50750); experiment: CDK9 kinase activity inhibition (ADP-Glo)
Procedure: as §1, §2, §3

CDK9, sequence (P50750 whole entry): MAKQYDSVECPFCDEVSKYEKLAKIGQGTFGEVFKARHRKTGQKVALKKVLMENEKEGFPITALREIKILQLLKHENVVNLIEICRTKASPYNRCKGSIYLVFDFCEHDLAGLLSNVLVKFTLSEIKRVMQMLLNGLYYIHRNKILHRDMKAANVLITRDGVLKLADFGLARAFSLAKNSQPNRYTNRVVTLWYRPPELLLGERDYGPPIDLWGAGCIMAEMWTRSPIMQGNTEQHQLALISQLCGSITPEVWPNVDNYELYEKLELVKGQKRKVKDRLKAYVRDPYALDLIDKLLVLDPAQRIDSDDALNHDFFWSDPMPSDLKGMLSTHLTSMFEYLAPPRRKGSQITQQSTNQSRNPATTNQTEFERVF
CDK9, sequence (O60563 whole entry partner): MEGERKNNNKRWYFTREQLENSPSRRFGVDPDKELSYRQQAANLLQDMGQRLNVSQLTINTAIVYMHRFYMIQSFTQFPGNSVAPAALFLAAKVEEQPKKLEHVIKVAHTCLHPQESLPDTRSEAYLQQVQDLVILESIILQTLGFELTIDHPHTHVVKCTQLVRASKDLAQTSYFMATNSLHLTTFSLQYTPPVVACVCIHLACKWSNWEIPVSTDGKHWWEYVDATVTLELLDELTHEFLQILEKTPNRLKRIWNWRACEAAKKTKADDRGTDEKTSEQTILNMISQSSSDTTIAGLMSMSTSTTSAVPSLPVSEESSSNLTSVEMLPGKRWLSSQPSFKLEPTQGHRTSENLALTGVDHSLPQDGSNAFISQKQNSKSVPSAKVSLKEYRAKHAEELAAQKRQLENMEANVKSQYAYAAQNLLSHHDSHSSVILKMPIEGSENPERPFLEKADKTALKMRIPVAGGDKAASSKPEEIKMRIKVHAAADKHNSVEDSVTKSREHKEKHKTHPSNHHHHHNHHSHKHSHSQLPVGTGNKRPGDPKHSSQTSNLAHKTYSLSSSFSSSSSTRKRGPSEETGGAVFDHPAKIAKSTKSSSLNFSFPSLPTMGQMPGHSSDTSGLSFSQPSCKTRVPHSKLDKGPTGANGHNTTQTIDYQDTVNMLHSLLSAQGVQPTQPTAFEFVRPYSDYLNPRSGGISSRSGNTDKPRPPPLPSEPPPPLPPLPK
T1 sequence (P50613 whole entry): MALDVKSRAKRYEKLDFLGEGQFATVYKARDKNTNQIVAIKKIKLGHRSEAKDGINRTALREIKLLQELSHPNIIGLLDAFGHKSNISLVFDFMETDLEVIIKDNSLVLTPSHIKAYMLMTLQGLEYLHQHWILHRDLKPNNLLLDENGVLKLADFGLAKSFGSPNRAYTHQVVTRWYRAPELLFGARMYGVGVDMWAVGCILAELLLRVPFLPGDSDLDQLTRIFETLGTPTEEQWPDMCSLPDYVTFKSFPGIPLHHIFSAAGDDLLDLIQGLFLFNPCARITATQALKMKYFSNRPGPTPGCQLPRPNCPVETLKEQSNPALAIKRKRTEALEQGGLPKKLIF
T1 sequence (P51946 whole entry partner): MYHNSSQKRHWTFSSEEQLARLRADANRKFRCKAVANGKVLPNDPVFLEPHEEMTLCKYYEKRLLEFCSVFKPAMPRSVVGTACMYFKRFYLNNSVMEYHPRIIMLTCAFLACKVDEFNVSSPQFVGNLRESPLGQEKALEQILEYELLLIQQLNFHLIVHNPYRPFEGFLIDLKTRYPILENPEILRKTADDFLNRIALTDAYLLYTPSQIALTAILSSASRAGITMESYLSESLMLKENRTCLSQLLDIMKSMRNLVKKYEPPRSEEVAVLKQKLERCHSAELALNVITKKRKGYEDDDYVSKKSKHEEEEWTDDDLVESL
T1 sequence (P51948 whole entry partner): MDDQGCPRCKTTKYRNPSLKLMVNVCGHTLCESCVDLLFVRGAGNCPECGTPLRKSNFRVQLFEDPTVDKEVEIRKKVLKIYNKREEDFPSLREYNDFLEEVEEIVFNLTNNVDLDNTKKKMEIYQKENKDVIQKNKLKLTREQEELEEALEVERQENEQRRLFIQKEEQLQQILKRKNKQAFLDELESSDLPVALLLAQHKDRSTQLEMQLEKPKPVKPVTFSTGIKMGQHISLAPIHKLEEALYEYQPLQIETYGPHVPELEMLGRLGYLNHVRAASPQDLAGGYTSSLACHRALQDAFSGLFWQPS

## CC(=O)NC[C@H]1CCC(F)(F)CN1C(=O)c1nc(Nc2cc3[nH]ccc3cn2)ccc1C [Compound 12, (R)—N-((1-(6-((1H-pyrrolo[3,2-c]pyridin-6-yl)amino)-3-methylpyridine-2-carbonyl)-5,5-difluoropiperidin-2-yl)methyl)acetamide]
CDK7
  IC50: > 10000 nM
CDK2
  IC50: > 10000 nM
CDK9
  IC50: 163 nM

## CC(=O)NC[C@H]1CCC(F)(F)CN1C(=O)c1nc(Nc2cc(C(C)(C)C)sn2)ccc1C [Compound 13, (R)—N-((1-(6-((5-(t-butyl)isothiazol-3-yl)amino)-3-methylpyridine-2-carbonyl)-5,5-difluoropiperidin-2-yl)methyl)acetamide]
CDK7
  IC50: > 10000 nM
CDK2
  IC50: 704 nM
CDK9
  IC50: 64 nM

## CC(=O)NC[C@H]1CCC(F)(F)CN1C(=O)c1nc(Nc2cc(-c3cnn4c3CCC4)c(F)cn2)ccc1C [Compound 14, (R)—N-((1-(6-((4-(5,6-dihydro-4H-pyrrolo[1,2-b]pyrazol-3-yl)-5-fluoropyridin-2-yl)amino)-3-methylpyridine-2-carbonyl)-5,5-difluoropiperidin-2-yl)methyl)acetamide]
CDK7
  IC50: 1880 nM
CDK2
  IC50: 1600 nM
CDK9
  IC50: 107 nM

## CC(=O)NC[C@H]1CCC(F)(F)CN1C(=O)c1nc(Nc2cc(OC3CCC3)ccn2)ccc1C [Compound 16, (R)—N-((1-(6-((4-cyclobutoxypyridin-2-yl)amino)-3-methylpyridine-2-carbonyl)-5,5-difluoropiperidin-2-yl)methyl)acetamide]
CDK7
  IC50: > 10000 nM
CDK2
  IC50: 6350 nM
CDK9
  IC50: 54.6 nM

## CC(=O)NC[C@H]1CCC(F)(F)CN1C(=O)c1nc(Nc2cc(-c3cnn4c3CCC4)ccn2)ccc1C [Compound 18, (R)—N-((1-(6-((4-(5,6-dihydro-4H-pyrrolo[1,2-b]pyrazol-3-yl)pyridin-2-yl)amino)-3-methylpyridine-2-carbonyl)-5,5-difluoropiperidin-2-yl)methyl)acetamide]
CDK2
  IC50: 3310 nM
CDK9
  IC50: 33.6 nM

## CC(=O)NC[C@H]1CCC(F)(F)CN1C(=O)c1nc(Nc2cc(C3CCCC3)ccn2)ccc1C [Compound 20, (R)—N-((1-(6-((4-cyclopentylpyridin-2-yl)amino)-3-methylpyridine-2-carbonyl)-5,5-difluoropiperidin-2-yl)methyl)acetamide]
CDK2
  IC50: 1230 nM
CDK9
  IC50: 44.1 nM

## CC(=O)NC[C@H]1CCC(F)(F)CN1C(=O)c1nc(Nc2cc(N3CCCC3)ccn2)ccc1C [Compound 21, (R)—N-((5,5-difluoro-1-(3-methyl-6-((4-(pyrrolidin-1-yl)pyridin-2-yl)amino)pyridine-2-carbonyl)piperidin-2-yl)methyl)acetamide]
CDK2
  IC50: > 10000 nM
CDK9
  IC50: 182 nM

## CC(=O)NC[C@H]1CCC(F)(F)CN1C(=O)c1nc(Nc2ncccn2)ccc1C [Compound 23, (R)—N-((5,5-difluoro-1-(3-methyl-6-(pyrimidin-2-ylamino)pyridine-2-carbonyl)piperidin-2-yl)methyl)acetamide]
CDK2
  IC50: > 10000 nM
CDK9
  IC50: 4620 nM

## CC(=O)NC[C@H]1CCC(F)(F)CN1C(=O)c1nc(Nc2ccncn2)ccc1C [Compound 25, (R)—N-((5,5-difluoro-1-(3-methyl-6-(pyrimidin-4-ylamino)pyridine-2-carbonyl)piperidin-2-yl)methyl)acetamide]
CDK2
  IC50: > 10000 nM
CDK9
  IC50: 218 nM

## CC(=O)NC[C@H]1CCC(F)(F)CN1C(=O)c1nc(Nc2cnccn2)ccc1C [Compound 26, (R)—N-((5,5-difluoro-1-(3-methyl-6-(pyrazin-2-ylamino)pyridine-2-carbonyl)piperidin-2-yl)methyl)acetamide]
CDK2
  IC50: 3610 nM
CDK9
  IC50: 17.8 nM

## CC(=O)NC[C@H]1CCC(F)(F)CN1C(=O)c1nc(Nc2ncccc2OC(F)(F)F)ccc1C [Compound 29, (R)—N-((5,5-difluoro-1-(3-methyl-6-((3-(trifluoromethoxy)pyridin-2-yl)amino)pyridine-2-carbonyl)piperidin-2-yl)methyl)acetamide]
CDK2
  IC50: > 10000 nM
CDK9
  IC50: 5710 nM

## CCOc1ccnc(Nc2ccc(C)c(C(=O)N3CC(F)(F)CC[C@@H]3CN)n2)c1 [Compound 37, (R)-(2-(aminomethyl)-5,5-difluoropiperidin-1-yl)(6-((4-ethoxypyridin-2-yl)amino)-3-methylpyridin-2-yl)methanone]
CDK2
  IC50: 3560 nM
CDK9
  IC50: 26.6 nM

## Cc1ccc(Nc2cc(OC(F)(F)F)ccn2)nc1C(=O)N1CCCC(F)(F)CC1 [Compound 38, (4,4-Difluoroazepin-1-yl)(3-methyl-6-((4-(trifluoromethoxy)pyridin-2-yl)amino)pyridin-2-yl)methanone]
CDK2
  IC50: 447 nM
CDK9
  IC50: 267 nM

## CC(=O)N[C@@H]1CN(C(=O)c2nc(Nc3cc(OC(F)(F)F)ccn3)ccc2C)CC(F)(F)C1 [Compound 42, (S)—N-(5,5-difluoro-1-(3-methyl-6-((4-(trifluoromethoxy)pyridin-2-yl)amino)pyridine-2-carbonyl)piperidin-3-yl)acetamide]
CDK2
  IC50: 361 nM
CDK9
  IC50: 34.8 nM

## CC(=O)N[C@H]1CN(C(=O)c2nc(Nc3cc(OC(F)(F)F)ccn3)ccc2C)CC(F)(F)C1 [Compound 43, (R)—N-(5,5-difluoro-1-(3-methyl-6-((4-(trifluoromethoxy)pyridin-2-yl)amino)pyridine-2-carbonyl)piperidin-3-yl)acetamide]
CDK2
  IC50: > 10000 nM
CDK9
  IC50: 167 nM

## CC(=O)NCC1CCC(F)(F)CN1C(=O)c1nc(Nc2cc(OC(F)(F)F)ccn2)ccc1C (centres unmarked) [Compound 44, N-((5,5-difluoro-1-(3-methyl-6-((4-(trifluoromethoxy)pyridin-2-yl)amino)pyridine-2-carbonyl)piperidin-2-yl)methyl)acetamide]
CDK2
  IC50: 679 nM
CDK9
  IC50: 23 nM

## CC(=O)NC[C@H]1CCCCN1C(=O)c1nc(Nc2cc(OC(F)(F)F)ccn2)ccc1C [Compound 45, (R)—N-((1-(3-methyl-6-((4-(trifluoromethoxy)pyridin-2-yl)amino)pyridine-2-carbonyl)piperidin-2-yl)methyl)acetamide]
CDK2
  IC50: 884 nM
CDK9
  IC50: 19.9 nM

## CCNC(=O)C1CCC(F)(F)CN1C(=O)c1nc(Nc2cc(OC(F)(F)F)ccn2)ccc1C (centres unmarked) [Compound 49, N-ethyl-5,5-difluoro-1-(3-methyl-6-((4-(trifluoromethoxy)pyridin-2-yl)amino)pyridine-2-carbonyl)piperidine-2-carboxamide]
CDK2
  IC50: 3210 nM
CDK9
  IC50: 107 nM

## CC(=O)N[C@@H]1C[C@H](NC(=O)c2nc(Nc3cc(OC(F)(F)F)ccn3)ccc2C)CC(F)(F)C1 [Compound 50, N-((1S,5R)-5-acetamido-3,3-difluorocyclohexyl)-3-methyl-6-((4-4-trifluoromethoxypyridin-2-yl)amino)pyridine-2-carbonylamide]
CDK2
  IC50: > 10000 nM
CDK9
  IC50: 573 nM

## CC(=O)N(C)C[C@H]1CCC(F)(F)CN1C(=O)c1nc(Nc2cc(OC(F)(F)F)ccn2)ccc1C [Compound 52, (R)—N-((5,5-difluoro-1-(3-methyl-6-((4-(trifluoromethoxy)pyridin-2-yl)amino)pyridine-2-carbonyl)piperidin-2-yl)methyl)-N-methylacetamide]
CDK2
  IC50: 658 nM
CDK9
  IC50: 14.6 nM

## CNC(=O)c1ccnc(Nc2ccc(C)c(C(=O)N3CC(F)(F)CC[C@@H]3CNC(C)=O)n2)c1 [Compound 55, (R)-2-((6-(2-(acetamidomethyl)-5,5-difluoropiperidine-1-carbonyl)-5-methylpyridin-2-yl)amino)-N-methyl isonicotinamide]
CDK2
  IC50: > 10000 nM
CDK9
  IC50: 28.3 nM

## CC(=O)NC[C@H]1CCC(F)(F)CN1S(=O)(=O)c1cc(Nc2cc(OC(F)(F)F)ccn2)ccc1C [Compound 58, (R)—N-((5,5-difluoro-1-((2-methyl-5-((4-(trifluoromethoxy)pyridin-2-yl)amino)phenyl)sulfonyl)piperidin-2-yl)methyl)acetamide]
CDK2
  IC50: > 10000 nM
CDK9
  IC50: > 10000 nM

## CC(=O)NC[C@H]1CCC(F)(F)CN1Cc1nc(Nc2cc(OC(F)(F)F)ccn2)ccc1C [Compound 62, (R)—N-((5,5-difluoro-1-((3-methyl-6-((4-(trifluoromethoxy)pyridin-2-yl)amino)pyridin-2-yl)methyl)piperidin-2-yl)methyl)acetamide]
CDK2
  IC50: > 10000 nM
CDK9
  IC50: 531 nM

## CC(C)(C)OC(=O)NC[C@H]1CCC(F)(F)CN1C(=O)c1nc(Nc2cc(OC(F)(F)F)ccn2)ccc1F [Compound 66]
CDK2
  IC50: 1260 nM
CDK9
  IC50: 647 nM

## CC(=O)NC[C@H]1CCC(F)(F)CN1C(=O)c1cc(Nc2cc(OC(F)(F)F)ccn2)ncc1C [Compound 72, (R)—N-((5,5-difluoro-1-(5-methyl-2-((4-(trifluoromethoxy)pyridin-2-yl)amino)isonicotinoyl)piperidin-2-yl)methyl)acetamide]
CDK2
  IC50: > 10000 nM
CDK9
  IC50: 1310 nM

## CC(=O)NC[C@H]1CCC(F)(F)CN1C(=O)c1nc(Nc2cc(OC(F)(F)F)ccn2)ncc1C [Compound 76, (R)—N-((5,5-difluoro-1-(5-methyl-2-((4-(trifluoromethoxy)pyridin-2-yl)amino)pyrimidine-4-carbonyl)piperidin-2-yl)methyl)acetamide]
CDK2
  IC50: 5780 nM
CDK9
  IC50: 18.4 nM
